# From ChEMBL document CHEMBL3734670, “Synthetic spirocyclic endoperoxides: new antimalarial scaffolds” (Medchemcomm, 2015)
# Columns and labels:
# [1] = tested on: Plasmodium falciparum; assay: Antiplasmodial activity against chloroquine-sensitive Plasmodium falciparum D10 infected in human A positive erythrocyte assessed as inhibition of parasite growth after 72 hrs by parasite lactate dehydrogenase assay; format: functional, organism-based; conditions: D10, 72 h
# [2] = tested on: Plasmodium falciparum; assay: Antiplasmodial activity against chloroquine-resistant Plasmodium falciparum W2 infected in human A positive erythrocyte assessed as inhibition of parasite growth after 72 hrs by parasite lactate dehydrogenase assay; format: functional, organism-based; conditions: W2, 72 h
# [3] = Cytotoxicity against mouse NIH/3T3 cells assessed as cell viability after 24 hrs by neutral red uptake assay; format: cell-based, NIH3T3; conditions: read-out: TC50
# [4] = tested on: Mus musculus; assay: Toxicity against BALB/c mouse infected with chloroquine-sensitive Plasmodium berghei ANKA at 100 mg/kg, ip qd for 5 days; format: organism-based; conditions: in vivo, 120 h
# [5] = tested on: Plasmodium berghei; assay: Antimalarial activity against chloroquine-sensitive Plasmodium berghei ANKA erythrocytic stage infected in BALB/c mouse assessed as reduction in parasitaemia at 100 mg/kg, ip qd after 5 days by Peters 4 days test; format: functional; set-up: scale not given: the % may be the effect or the level left
SMILES,IC50 [1] [nM],IC50 [2] [nM],CC50 at 24 h [3] [nM],Activity [4],Activity [5] [%]
C[C@@]12CCO[C@@H]1OOC1(CCCC1)C2 (racemic),840,470,,,
C[C@@]12CCO[C@@H]1OOC1(CCCCC1)C2 (racemic),5300,1100,,,
C1CCC2(CC1)OO[C@H]1CCCC[C@H]12 (racemic),7200,3200,,,
C[C@@]12CCO[C@@H]1OOC1(C2)C2CC3CC(C2)CC1C3 (mixture of isomers),610,160,150000,Non-toxic,72.5
C[C@@]12CCO[C@@H]1OOC21CCCCC1 (racemic),8500,> 25000,,,
C[C@@]12CCO[C@@H]1OO[C@@](C)(C1CCCC1)C2 (mixture of isomers),1200,800,,,
C[C@@]1(CC23CC4CC(CC(C4)C2)C3)C[C@]2(C)CCO[C@@H]2OO1 (mixture of isomers),850,390,,,
C[C@@]12CCO[C@@H]1OO[C@@](C)(C1CCCCC1)C2 (mixture of isomers),390,140,,,
C[C@@H]1CC[C@H]2[C@@H](C)C(=O)O[C@@H]3O[C@@]4(C)CC[C@@H]1[C@]32OO4 [ARTEMISININ],,12,,,
C[C@@]12CCO[C@@H]1OOC1(CCCCC1)CC2 (racemic),> 20000,> 17000,,,
